Test results: patent US20190117653A1, “SYSTEMS AND METHODS FOR TREATING BACTERIAL INFECTION” (priority 2016, published 2019)
Values after ≈ are worked out from the molar mass of the structure shown. Read-outs that look alike come from different tables or passages of the source.

Legend:
[1] = test system: S. aureus; conditions: worldwide surveillance studies; cited from earlier work
[2] = test system: nosocomial pneumonia suspected or confirmed to be caused by Gram-positive pathogens; test: Phase 2 study in nosocomial pneumonia, iclaprim versus vancomycin; type: in vivo, human
From the text: This MIC effect of surfactant on daptomycin activity has been reported to be mediated by binding of surfactant components to specific structures present on antibiotics, such as the lipophilic side-chain of daptomycin (Silverman et al., 2005). […] Collectively, the current in vitro study and a previous Phase 2 study support that iclaprim could be a potential treatment for pneumonia, including nosocomial pneumonia caused by susceptible and multidrug resistant Gram-positive bacteria.

[3] = test system: common Gram-positive and Gram-negative respiratory bacteria; test: pulmonary surfactant interaction, overall effect of BPS on MIC and MICRZ; type: cell-based; conditions: 2.5% (v/v) BPS; all tested strains or isolates
Protocol: Antibacterial susceptibility testing was measured by JMI Labs (North Liberty, Iowa, USA). […] These clinical isolates were collected from US (n=4), Mexico (n=2), and Italy (n=1). Susceptibility testing was performed by broth microdilution in accordance with the Clinical and Laboratory and Standards Institute (CLSI) guidelines M07-A10 (2015) and the standard operating procedures at JMI laboratories. Minimum inhibitory concentrations (MICS) were based on CLSI criteria (2015). There are no published breakpoints for iclaprim. E. coli, K. pneumoniae, M. catarrhalis, E. faecalis, and S. aureus were tested in cation-adjusted Mueller-Hinton broth (CA-MHB). […]
Because bovine pulmonary surfactant can introduce cloudiness to the MIC testing media, antimicrobial growth inhibition was also evaluated using the colorimetric metabolic indicator resazurin (Camlab Ltd., Cambridge, UK). […] Growth inhibition was then evaluated as a visible color change from blue (no growth) to pink (robust growth) and recorded as a MIC1z value.
(§1) The MICs of iclaprim, levofloxacin, and daptomycin were determined against Gram-positive and Gram-negative isolates.
A new vial of bovine pulmonary surfactant (BPS; Survanta®; Abbott Laboratories, Columbus, Ohio) was utilized for each independent experiment. […] MICs of daptomycin were determined in CAMHB with the Ca^2+ content adjusted to 50 mg/L.

[4] = test system: E. faecalis ATCC 29212; test: MIC with/without bovine pulmonary surfactant; type: cell-based; conditions: Enterococcus faecalis
Protocol: (§2) Antibacterial susceptibility testing was measured by JMI Labs (North Liberty, Iowa, USA). […] These clinical isolates were collected from US (n=4), Mexico (n=2), and Italy (n=1). Susceptibility testing was performed by broth microdilution in accordance with the Clinical and Laboratory and Standards Institute (CLSI) guidelines M07-A10 (2015) and the standard operating procedures at JMI laboratories. Minimum inhibitory concentrations (MICS) were based on CLSI criteria (2015). There are no published breakpoints for iclaprim. E. coli, K. pneumoniae, M. catarrhalis, E. faecalis, and S. aureus were tested in cation-adjusted Mueller-Hinton broth (CA-MHB). S. pneumoniae were tested in CA-MHB supplemented with 2.5-5% lysed horse blood, and H. influenza were tested in Haemophilus test medium. Quality control and interpretation of results were performed in accordance with CLSI M100-S26 (2016) methods. QC ranges for iclaprim were those approved by CLSI and published in M100-S26 (2016). Iclaprim and comparator antibiotic MIC results were within the CLSI published ranges against E. coli ATCC 25922, E. faecalis ATCC 29212, E. faecalis ATCC 33186, H. influenzae ATCC 49247, K. pneumoniae ATCC 700603 (ESBL phenotype), S. aureus ATCC 29213, and S. pneumoniae ATCC 49619. Isolates were tested with MIC panels (ThermoFisher Scientific, Cleveland, Ohio, USA) of comparator antibiotics (daptomycin and levofloxacin).
(§3) Because bovine pulmonary surfactant can introduce cloudiness to the MIC testing media, antimicrobial growth inhibition was also evaluated using the colorimetric metabolic indicator resazurin (Camlab Ltd., Cambridge, UK). […] S. pneumoniae panels were omitted from resazurin analysis because the color change was obscured by the lysed horse blood present in the test medium. Growth inhibition was then evaluated as a visible color change from blue (no growth) to pink (robust growth) and recorded as a MIC1z value.
as §1
(§4) A new vial of bovine pulmonary surfactant (BPS; Survanta®; Abbott Laboratories, Columbus, Ohio) was utilized for each independent experiment. Each vial was mixed thoroughly and a 100 μL aliquot was spread on an agar plate, which was incubated overnight to confirm sterility. […] The concentration of surfactant was expressed in terms of percent volume of Survanta® suspension, which consisted of phospholipid (25 mg/mL) and surfactant proteins (<1 mg/mL) in 0.9% sodium chloride solution (Goerke, 1998). MICs of daptomycin were determined in CAMHB with the Ca^2+ content adjusted to 50 mg/L.

[5] = test system: S. aureus ATCC 29213; test: MIC with/without bovine pulmonary surfactant; type: cell-based; conditions: Staphylococcus aureus
Protocol: as §2, §3, §1, §4

[6] = test system: S. aureus Clinical Isolate 825189; test: MIC with/without bovine pulmonary surfactant; type: cell-based; conditions: Staphylococcus aureus
Protocol: as §2, §3, §1, §4

[7] = test system: E. faecalis ATCC 33186; test: MIC with/without bovine pulmonary surfactant; type: cell-based; conditions: Enterococcus faecalis
Protocol: as §2, §3, §1, §4

[8] = test system: E. coli ATCC 25922; test: MIC with/without bovine pulmonary surfactant; type: cell-based; conditions: Escherichia coli
Protocol: as §2, §3, §1, §4

[9] = test system: M. catarrhalis Clinical Isolate 893806; test: MIC with/without bovine pulmonary surfactant; type: cell-based; conditions: Moraxella catarrhalis, 2.5% v/v BPS, read-out: MIC, Resazurin: +BPS
Protocol: as §2, §3, §1, §4

[10] = test system: H. influenzae ATCC 49247; test: MIC with/without bovine pulmonary surfactant; type: cell-based; conditions: Haemophilus influenzae
Protocol: as §2, §3, §1, §4

[11] = test system: QTc interval; test: single-dose ECG study in healthy human volunteers (1.6 and 3.2 mg/kg); type: in vivo; conditions: 3.2 mg/kg infused over 30 minutes
Protocol: Based on this, a single-dose ECG-study was conducted in healthy human volunteers, where 1.6 mg/kg and 3.2 mg/kg iclaprim was infused over 30 minutes. […] Maximal increases coincided with Cmax levels and were rapidly reversible. Weight-based dosing with 1.6 mg/kg was thus assessed as acceptable for clinical purposes, whereas weight-based dosing at 3.2 mg/kg was associated with relevant QTc prolongations (>60 msec) and nonspecific T-wave alterations, and was not used for further clinical studies.

[12] = test system: isolated rabbit Purkinje fibers
[13] = exposure to iclaprim in Phase I studies; conditions: human, in vivo

## COc1cc(Cc2cnc(N)nc2N)c2c(c1OC)OC(C1CC1)C=C2 (racemic) [Iclaprim]
[1]
  MIC90: 0.12 µg/mL (≈ 0.339 µM)
[2]; iclaprim 0.8 mg/kg IV q12h, test of cure visit (17 of 23)
  cure rate, intent-to-treat population: 73.9%
[2]; iclaprim 1.6 mg/kg IV q8h, test of cure visit (15 of 24)
  cure rate, intent-to-treat population: 62.5%
[2]; iclaprim q8h (3 of 24)
  death rate within 28 days of the start of treatment: 12.5%
[2]; iclaprim q12h (2 of 23)
  death rate within 28 days of the start of treatment: 8.7%
[3]
  effect of BPS on MIC and MICRZ values: minimal or no effect
[4]; ATCC29212, 2.5% v/v BPS, read-out: MIC, Resazurin: +BPS
  MIC: ≤ 0.015 µg/mL
[4]; ATCC29212, no BPS, read-out: MIC, Resazurin
  MIC: ≤ 0.015 µg/mL
[5]; ATCC29213, 2.5% v/v BPS, read-out: MIC, CLSI: +BPS
  MIC: 0.06 µg/mL (≈ 0.169 µM)
[5]; ATCC29213, 2.5% v/v BPS, read-out: MIC, Resazurin: +BPS
  MIC: 0.06 µg/mL (≈ 0.169 µM)
[5]; ATCC29213, no BPS, read-out: MIC, CLSI
  MIC: 0.06 µg/mL (≈ 0.169 µM)
[5]; ATCC29213, no BPS, read-out: MIC, Resazurin
  MIC: 0.06 µg/mL (≈ 0.169 µM)
[6]; 2.5% v/v BPS, read-out: MIC, CLSI: +BPS
  MIC: 0.12 µg/mL (≈ 0.339 µM)
[6]; 2.5% v/v BPS, read-out: MIC, Resazurin: +BPS
  MIC: 0.12 µg/mL (≈ 0.339 µM)
[6]; no BPS, read-out: MIC, CLSI
  MIC: 0.06 µg/mL (≈ 0.169 µM)
[6]; no BPS, read-out: MIC, Resazurin
  MIC: 0.06 µg/mL (≈ 0.169 µM)
[7]; ATCC33186, 2.5% v/v BPS, read-out: MIC, Resazurin: +BPS
  MIC: ≤ 0.015 µg/mL
[7]; ATCC33186, no BPS, read-out: MIC, Resazurin
  MIC: 0.03 µg/mL (≈ 0.0846 µM)
[8]; ATCC25922, 2.5% v/v BPS, read-out: MIC, CLSI: +BPS
  MIC: 0.5 µg/mL (≈ 1.41 µM)
[8]; ATCC25922, 2.5% v/v BPS, read-out: MIC, Resazurin: +BPS
  MIC: 1 µg/mL (≈ 2.82 µM)
[8]; ATCC25922, no BPS, read-out: MIC, CLSI
  MIC: 0.5 µg/mL (≈ 1.41 µM)
[8]; ATCC25922, no BPS, read-out: MIC, Resazurin
  MIC: 1 µg/mL (≈ 2.82 µM)
[9]
  MIC: 8 µg/mL (≈ 22.6 µM)
[10]; ATCC49247, 2.5% v/v BPS, read-out: MIC, Resazurin: +BPS
  MIC: 0.25 µg/mL (≈ 0.705 µM)
[10]; ATCC49247, no BPS, read-out: MIC, Resazurin
  MIC: 0.25 µg/mL (≈ 0.705 µM)
[11]
  QTc prolongation: > 60 ms
[12]
  concentration at which action potential duration was increased: above 1 μM
[13]; 1 mg/kg
  AUC: 2,575 ± 757 hr × ng/mL
[13]; 4 mg/kg
  AUC: 8,894 [29.0] hr × ng/mL
  Cmax: 2,851 [19.2] ng/mL
